# According to US12528790B2, “Amide derivative having antiviral activity” (Shionogi & Co., Ltd., priority 2020, dated 2026):
# Read-outs that look alike come from different tables or passages of the source.
# What was measured:
# RSV A2 strain = assay: In vitro CPE (CytoPathic Effect) inhibition effect evaluation test, RSV type A; type: cell-based; conditions: inhibitory effect against RSV type A (RSV A2 strain), HEp-2 cells, CPE inhibition, read-out: EC50
# Outline: (§1)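 EC50 is the concentration giving 50% inhibition of virus-induced cytopathic effect, fitted by nonlinear regression from CellTiter-Glo 2.0 viability. Compounds in 3-fold series were co-incubated at 37 °C with HEp-2 cells and RSV: A2 strain for 4 days, B (Wash/18537) for 5 days; uninfected wells served as control.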
# [1] = system: RSV B (Wash/18537 strain); assay: In vitro CPE (CytoPathic Effect) inhibition effect evaluation test, RSV type B; type: cell-based; conditions: inhibitory effect against RSV type B, CPE inhibition, read-out: EC50
# Outline: as §1
# [2] = human respiratory syncytial virus
compound,measurement,setting,value
O=C(NC1(C(=O)O)C2CC3CC(C2)CC1C3)c1ccc(-c2nn(C3CCOCC3)c3cc(OC4CCN(c5ncccn5)CC4)ccc23)nc1C(F)(F)F (centres unmarked) [Compound I-158],EC50,RSV A2 strain; [2],< 10 nM
same,EC50,[1]; [2],< 10 nM
O=C(NC1(C(=O)O)C2CC3CC(C2)CC1C3)c1cnc(-c2cn(C3CCC(F)(F)CC3)c3cc(OC4CCN(CC5(F)COC5)CC4)ccc23)nc1C(F)(F)F (centres unmarked) [Compound I-429],EC50,RSV A2 strain; [2],< 10 nM
same,EC50,[1]; [2],10 to 100 nM
O=C(NC1(C(=O)O)C2CC3CC(C2)CC1C3)c1cnc(N2CC3(CCCCC3)c3cc(OC4CN(c5ncc(F)cn5)C4)ccc32)nc1C(F)(F)F (centres unmarked) [Compound I-494],EC50,RSV A2 strain; [2],< 10 nM
same,EC50,[1]; [2],< 10 nM
CC(F)(F)c1nc(N2CC3(CCOCC3)c3cc(OC4CCC(N5CCC(F)(F)C5)CC4)ccc32)ncc1C(=O)NC1(C(=O)O)C2CC3CC(C2)CC1C3 (centres unmarked) [Compound I-541],EC50,RSV A2 strain,< 10 nM
same,EC50,[1],< 10 nM
CC(F)(F)c1nc(N2CC3(CCOCC3)c3cc(OC4CCN(CC(F)F)CC4)ccc32)ncc1C(=O)NC1(C(=O)O)C2CC3CC(C2)CC1C3 (centres unmarked) [Compound I-559],EC50,RSV A2 strain; [2],< 10 nM
same,EC50,[1]; [2],< 10 nM
CC(F)(F)c1nc(N2CC3(CCCCC3)c3cc(O[C@H]4CC[C@H](N5CC(F)(F)C5)CC4)ncc32)ncc1C(=O)N[C@]1(C(=O)O)[C@@H]2CC3C[C@H]1C[C@@](F)(C3)C2 [Compound I-556],EC50,RSV A2 strain; [2],< 10 nM
same,EC50,[1]; [2],10 to 100 nM
COCCCOc1ccc2c(c1)CCN2c1ncc(C(=O)NC2(C(=O)O)CCCCC2)c(C(F)(F)F)n1 [Compound I-7],EC50,RSV A2 strain; [2],10 to 100 nM
same,EC50,[1]; [2],100 to 5000 nM
Cc1ccc2c(c1)C1(CCOCC1)CN2c1ncc(C(=O)NC2(C(=O)O)C3CC4CC(C3)CC2C4)c(C(F)(F)F)n1 (centres unmarked) [Compound I-109],EC50,RSV A2 strain,< 10 nM
same,EC50,[1],10 to 100 nM
COc1cccc(COc2ccc3c(c2)CCN3c2ncc(C(=O)NC3(C(=O)O)CCCCC3)c(C(F)(F)F)n2)c1 [Compound I-3],EC50,RSV A2 strain; [2],10 to 100 nM
same,EC50,[1]; [2],10 to 100 nM
CC(F)(F)c1nc(N2CC3(CCOCC3)c3cc(-n4ncc5c4CCN(CC(F)(F)F)C5)ccc32)ncc1C(=O)NC1(C(=O)O)C2CC3CC(C2)CC1C3 (centres unmarked) [Compound I-596],EC50,RSV A2 strain; [2],< 10 nM
same,EC50,[1]; [2],< 10 nM
CC(F)(F)c1nc(N2CC3(CCCCC3)c3cc(OC4CCN(c5nc(C(F)(F)F)ns5)CC4)ccc32)ncc1C(=O)NC1(C(=O)O)C2CC3CC(C2)CC1C3 (centres unmarked) [Compound I-536],EC50,RSV A2 strain; [2],< 10 nM
same,EC50,[1]; [2],10 to 100 nM
CC(F)(F)c1nc(N2CC3(CCOCC3)c3cc(OC4CCN(C5CC(F)(F)C5)CC4)ccc32)ncc1C(=O)NC1(C(=O)O)C2CC3CC(C2)CC1C3 (centres unmarked) [Compound I-551],EC50,RSV A2 strain; [2],< 10 nM
same,EC50,[1]; [2],< 10 nM
Cc1nc(N2CCc3cc(OCCC4CCOCC4)ccc32)nc(C(F)(F)F)c1C(=O)NC1(C(=O)O)CCCCC1 [Compound I-72],EC50,RSV A2 strain; [2],< 10 nM
same,EC50,[1]; [2],100 to 5000 nM
O=C(NC1(C(=O)O)C2CC3CC(C2)CC1C3)c1cnc(-c2cn(C3CCOCC3)c3cc(OC4CCN(c5ncc(F)cn5)CC4)ccc23)nc1C(F)(F)F (centres unmarked) [Compound I-431],EC50,RSV A2 strain; [2],< 10 nM
same,EC50,[1]; [2],< 10 nM
CC(F)(F)c1nc(N2CC3(CCOCC3)c3cc(O[C@H]4CC[C@H](N5CC(F)(F)C5)CC4)ccc32)ncc1C(=O)N[C@]1(C(=O)O)[C@@H]2CC3C[C@H]1C[C@@](F)(C3)C2 [Compound I-554],EC50,RSV A2 strain; [2],< 10 nM
same,EC50,[1]; [2],< 10 nM
O=C(NC1(C(=O)O)C2CC3CC(C2)CC1C3)c1cnc(-c2cn(C3CCC(F)(F)CC3)c3cc(OC4CCC(N5CC(F)(F)C5)C4)ccc23)nc1C(F)(F)F (centres unmarked) [Compound I-451],EC50,RSV A2 strain; [2],< 10 nM
same,EC50,[1]; [2],10 to 100 nM
